# Measurements published in US9115122B2, “Non-ATP dependent inhibitors of extracellular signal-regulated kinase (ERK)” (UNIVERSITY OF MARYLAND, BALTIMORE, priority 2012, dated 2015).
# Columns and labels:
# A375 melanoma cells [1] = assay: Cell proliferation WST-1 assay, single dose (Example 4); format: cell-based; conditions: 100 μM, 48 hours
# Procedure, shortened: (§1)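 Cells (~5000/well) recovered 16-20 hours after seeding, then were exposed to test compound for 48 hours. WST-1 reagent was added and absorbance read at 450 nm, background at 650 nm subtracted. Values normalized to DMSO-only control cells.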
# HL-60 leukemic cells = assay: as above; format: cell-based; conditions: 100 μM, 48 hours
# Procedure, shortened: as §1
# [2] = system: HeLa cervical carcinoma cells; assay: as above; format: cell-based; conditions: 100 μM, 48 hours
# Procedure, shortened: as §1
# [3] = system: Jurkat T-cell leukemia cells; assay: as above; format: cell-based; conditions: 100 μM, 48 hours
# Procedure, shortened: as §1
# RPMI-7951 melanoma cells = assay: as above; format: cell-based; conditions: 100 μM, 48 hours
# Procedure, shortened: as §1
# SK-MEL-28 melanoma cells [4] = assay: as above; format: cell-based; conditions: 100 μM, 48 hours
# Procedure, shortened: as §1
# [5] = basic group replacing the ethylamine group; cited from earlier work
# A375 melanoma cells [6] = assay: Dose-response growth inhibition (GI50) of select compounds; format: cell-based; conditions: Homo sapiens, A-375, 48 h, two days
# Procedure: (§2) An example of the dose response curve for compound 30h and the BRaf inhibitor PLX4032 for inhibiting the growth of melanoma cell lines is shown in FIG. 14. […] A summary of GI50 values for select compounds along with comparisons to know ERK pathway inhibitors in various cell lines is shown in Table 13. […] First, thiazolidinedione compounds have been identified to be selective inhibitors of cancer cell lines containing activated ERK signaling. Second, changes in the 4-ethoxyphenyl component of the parent compound 76 improve selectivity and potency for inhibiting melanoma cell growth. Third, compound 30h is a potent inhibitor of melanoma cell lines that have become resistant to the clinically relevant BRaf and MEK inhibitors. […] Lastly, 30h is as potent as the ATP-competitive pyrazolopyridazinamine ERK inhibitor (FR180204) in preventing melanoma cell proliferation and provides an alternative non-ATP-dependent approach to target cancer cells that are dependent on active ERK signaling.
# (§3) Melanoma cells (A375, SK-MEL-28, and RPMI7951) were seeded at a density of 5,000 per well in 96-well plate. After overnight incubation, cells were treated with varying doses of PLX4032 (A) or 31h (B) for two days. Cell viability was determined by the addition of Cell Titer-Blue Reagent (20 μL/well) followed by 2 hours of incubation at 37° C. after which fluorescence was recorded (555/585 nm). Cell viability was expressed as percentage of vehicle control and data represent the average of three individual experiments.
# RPMI7951 melanoma cells [7] = assay: as above; format: cell-based; conditions: Homo sapiens, RPMI-7951, 48 h, two days
# Procedure: as §2, §3
# SK-MEL-28 melanoma cells [8] = assay: as above; format: cell-based; conditions: Homo sapiens, SK-MEL-28, 48 h, two days
# Procedure: as §2, §3
# HeLa cells = assay: as above; format: cell-based; conditions: Homo sapiens, HeLa
# Jurkat cells = assay: as above; format: cell-based; conditions: Homo sapiens, Jurkat
# [9] = system: activator protein-1 (AP-1) promoter; assay: AP-1 promoter luciferase assay, HeLa cells (Example 4); format: cell-based
# Procedure: (§4) HeLa cells were seeded in 24-well plates (4×10^4 cells/well) and incubated 18 hours prior to achieve ˜60-70% confluent. Cells were transfected with activator protein-1 (pAP1(PMA)-TA-Luc; Clontech) or the serum response element (pGL4.33-SRE; Promega) luciferase reporter plasmids (250 ng/well) using Lipofectamine™ (Invitrogen). After 16 hours, cells were treated with increasing amount of compounds as indicated for 20 minutes, followed by stimulation with EGF (25 ng/mL) for 4.5 hr. The luciferase activity in the cell extracts was determined with a Dual Luciferase Assay System (Promega) according to the manufacturer's instructions. Luciferase activities were monitored with a Lumat LB 9507 luminometer (Berthold Technology) and data were normalized to the amount of protein in each sample.
# [10] = system: serum response element (SRE); assay: SRE promoter luciferase assay, HeLa cells (Example 4); format: cell-based
# Procedure: as §4
# A375 melanoma cells [11] = assay: Cell proliferation, fluorescent Cell Titer Blue Assay (Example 1); format: cell-based; conditions: Homo sapiens, A-375; 48 hours
# Procedure: (§5) FIG. 5. Dose dependent inhibition of cancer cell proliferation in vitro by SF-3-026 and analogs. A375 (closes circles), RPM17951 (closed squares), HeLa (open circles), or Jurkat (open squares) cells were treated for 48 hours with indicated concentration of (a) SF-3-026, (b) SF-2-027, (c) SF-2-029, or (d) SF-2-030 and cell proliferation was assessed by the fluorescent Cell Titer Blue Assay. The data were reproduced in 3 separate experiments.
# (§6) Cells were seeded at 25,000 cells/well in 96-well plate and cultured overnight. Cells were treated for 24 hours with various concentrations of compounds and cell viability or caspase 3/7 activity were measured according to manufacturer's instructions using the fluorescent Cell Titer Blue Assay (Promega) or luminescent Caspase 3/7 Glo Assay (Promega).
# (§7) It was next determined whether inhibition of AP-1 proteins by SF-3-026 and analogs affected the proliferation of cancer cells driven by mutations that constitutively activate the ERK1/2 pathway. For these experiments, A375 and RPMI7951 melanoma cells, which have a valine to glutamate mutation on residue 600 in BRaf that causes constitutive ERK1/2 activation, were chosen. Moreover, RPMI7951 cells are resistant to clinically used BRaf inhibitors due to overexpression of MAP3K8 (the gene encoding COT/Tp12) that re-activates ERK1/2 signaling. Both melanoma cells lines were treated with varying doses of SF-3-026 or analogs and cell viability was compared to HeLa cervical carcinoma and Jurkat T-cell leukemia cells, which are p53 defective but contain no known activating mutations in the ERK1/2 pathway.
# [12] = system: HeLa cervical carcinoma cells; assay: as above; format: cell-based; conditions: Homo sapiens, 48 hours
# Procedure: as §5, §6, §7
# [13] = system: Jurkat T-cell leukemia cells; assay: as above; format: cell-based; conditions: Homo sapiens, 48 hours
# Procedure: as §5, §6, §7
# RPMI7951 melanoma cells [14] = assay: as above; format: cell-based; conditions: Homo sapiens, RPMI-7951; 48 hours
# Procedure: as §5, §6, §7
# [15] = system: MEK1-induced AP-1 promoter activity; assay: AP-1 promoter luciferase assay, HeLa cells expressing active MEK1 mutant; format: cell-based; conditions: Homo sapiens, 4 hours, read-out: IC50 inhibition of MEK1-induced AP-1 promoter activity
# Procedure: FIG. 4. Compound SF-3-026 and analogs inhibit SRE and AP-1 transcription factor function. (a) HeLa cells were transfected with constructs containing SRE or AP-1 promoters driving luciferase expression and then stimulated with EGF in the presence or absence of SF-3-026 for 4 hours followed by measurements of luciferase activity. Cells treated with U0126 were used as a positive inhibitor control. (b and c) HeLa cells were prepared and treated as in (a) with the indicated concentrations of SF-3-026 or analogs for 4 hours followed by the measurement of luciferase activity regulated by the SRE (b) or AP-1 (c) promoters. Data in (b and c) were normalized to EGF-only treatment and represent the mean and standard deviation from three independent experiments. (d) Compound SF-3-026 and analogs inhibit MEK1-induced AP-1 transcription factor function. HeLa cells were transfected with the AP-1 promoter construct and a constitutively active MEK1 mutant in the presence (10 μM) or absence of the MEK1/2 inhibitor (U0126) or an ATP-competitive ERK inhibitor (ERKi) for 4 hours followed by measurements of luciferase activity. (e) Cells expressing the AP-1 promoter and an active MEK-1 construct were treated with the indicated concentrations of SF-3-026 or analogs for 4 hours followed by the measurement of luciferase activity. Data in (e) were normalized to active MEK1-only treatment and represent the mean and standard deviation from three independent experiments.
# as §4, with “(40,000” for “(4×10^4”, “hours” for “hours prior”, “pre-treated” for “treated”, “varying amounts” for “increasing amount”, “hr. In some experiments, cells transfected with the pAP1(PMA)-TA-Luc promoter and a constitutively active MEK1 mutant cDNA were treated with varying amounts of compounds during the last 4 hours of incubation.” for “hr.”, “sample. […]” for “sample.”
# AP-1 promoter = AP-1 promoter luciferase assay, EGF-stimulated HeLa cells (Example 1); format: cell-based; conditions: Homo sapiens, EGF stimulation, 4 hours, read-out: IC50 inhibition of the AP-1 promoter
# Procedure: FIG. 4. Compound SF-3-026 and analogs inhibit SRE and AP-1 transcription factor function. (a) HeLa cells were transfected with constructs containing SRE or AP-1 promoters driving luciferase expression and then stimulated with EGF in the presence or absence of SF-3-026 for 4 hours followed by measurements of luciferase activity. Cells treated with U0126 were used as a positive inhibitor control. (b and c) HeLa cells were prepared and treated as in (a) with the indicated concentrations of SF-3-026 or analogs for 4 hours followed by the measurement of luciferase activity regulated by the SRE (b) or AP-1 (c) promoters. Data in (b and c) were normalized to EGF-only treatment and represent the mean and standard deviation from three independent experiments. (d) Compound SF-3-026 and analogs inhibit MEK1-induced AP-1 transcription factor function. […]
# HeLa cells were seeded in 24-well plates (40,000 cells/well) and incubated 18 hours to achieve ˜60-70% confluent. […] The luciferase activity in the cell extracts was determined with a Dual Luciferase Assay System (Promega) according to the manufacturer's instructions. Luciferase activities were monitored with a Lumat LB 9507 luminometer (Berthold Technology) and data were normalized to the amount of protein in each sample. […]
SMILES,Cell Viability (% of Vehicle) A375 (A375 melanoma cells [1]),Cell Viability (% of Vehicle) HL-60 (HL-60 leukemic cells),Cell Viability (% of Vehicle) HeLa [2],Cell Viability (% of Vehicle) Jurkat [3],Cell Viability (% of Vehicle) RPMI-7951 (RPMI-7951 melanoma cells),Cell Viability (% of Vehicle) SK-MEL-28 (SK-MEL-28 melanoma cells [4]),pKa [5],other results
"CCOc1ccc(/C=C2\SC(=O)N(Cc3cnc[nH]3)C2=O)cc1 [Compound 28a, (Z)-3((1H-imidazol-5-yl)methyl)-5-(4-ethoxybenzylidene)thiazolidine-2,4-dione]",101 ± 2 % of Vehicle,123 ± 20 % of Vehicle,80 ± 4 % of Vehicle,106 ± 6 % of Vehicle,70 ± 2 % of Vehicle,74 ± 6 % of Vehicle,~7,–
"CCOc1ccc(/C=C2\SC(=O)N(Cc3cccc(N)n3)C2=O)cc1 [Compound 28b, (Z)-3-((6-aminopyridin-2-yl)methyl)-5-(4-ethoxybenzylidene)thiazolidine-2,4-dione]",111 ± 1 % of Vehicle,107 ± 26 % of Vehicle,87 ± 6 % of Vehicle,105 ± 5 % of Vehicle,101 ± 4 % of Vehicle,86 ± 3 % of Vehicle,~6,–
"[H]/N=C(/N)NCCN1C(=O)SC(=Cc2ccc(OCC)cc2)C1=O [Compound 28c, (Z)-1-(2-(5-(4-ethoxybenzylidene)-2,4-dioxothiazolidin-3-yl)ethyl)guanidine]",31 ± 4 % of Vehicle,20 ± 6 % of Vehicle,17 ± 2 % of Vehicle,6.5 ± 0.5 % of Vehicle,42 ± 6 % of Vehicle,55 ± 6 % of Vehicle,~12,–
"CC(C)COc1ccc(/C=C2\SC(=O)N(CCN)C2=O)cc1 [Compound 30g, (Z)-3-(2-aminoethyl)-5-(4-isobutoxybenzylidene)thiazolidine-2,4-dione]",1.8 ± 0.5 % of Vehicle,5.0 ± 2 % of Vehicle,48 ± 3 % of Vehicle,91 ± 8 % of Vehicle,0.3 ± 0.04 % of Vehicle,0.8 ± 0.2 % of Vehicle,–,"GI50 (A375 melanoma cells [6]): 22 µM; GI50 (RPMI7951 melanoma cells [7]): 11 µM; GI50 (SK-MEL-28 melanoma cells [8]): 36 µM; GI50 (HeLa cells): ~100 µM; GI50 (Jurkat cells): > 100 µM; IC50 ([9]; Homo sapiens, EGF 25 ng/mL, read-out: estimated IC50 AP-1 promoter activity): ≤ 5 µM; IC50 ([10]; Homo sapiens, EGF 25 ng/mL, read-out: estimated IC50 SRE promoter activity): ≤ 5 µM"
"NCCN1C(=O)S/C(=C\c2ccc(OCc3ccccc3)cc2)C1=O [Compound 30h, (Z)-3-(2-aminoethyl)-5-(4-(benzyloxy)benzylidene)thiazolidine-2,4-dione]",0.6 ± 0.4 % of Vehicle,5.2 ± 2 % of Vehicle,59 ± 3 % of Vehicle,87 ± 5 % of Vehicle,0.2 ± 0.04 % of Vehicle,1.0 ± 1 % of Vehicle,–,GI50 (A375 melanoma cells [6]): 7 µM; GI50 (RPMI7951 melanoma cells [7]): 7 µM; GI50 (SK-MEL-28 melanoma cells [8]): 9 µM; GI50 (HeLa cells): > 100 µM; GI50 (Jurkat cells): > 100 µM; inhibition of ERK-mediated AP-1 promoter activity ([9]; EGF): less potent than compounds 76 and 30g at lower concentrations; inhibition of ERK-mediated SRE promoter activity ([10]; EGF): less potent than compounds 76 and 30g at lower concentrations
Cc1ccc(S(=O)(=O)OC2C=CS(=O)(=O)C2)cc1 (stereo not shown) [SF-3-027],–,–,–,–,–,–,–,GI50 (A375 melanoma cells [11]): 5.5 µM; GI50 [12]: 22 µM; GI50 [13]: > 50 µM; GI50 (RPMI7951 melanoma cells [14]): 3.1 µM; IC50 [15]: ~40 µM
O=S1(=O)C=CC(OS(=O)(=O)c2ccc(-c3ccccc3)cc2)C1 (stereo not shown) [SF-3-029],–,–,–,–,–,–,–,GI50 (A375 melanoma cells [11]): 7.9 µM; GI50 [12]: 25 µM; GI50 [13]: > 50 µM; GI50 (RPMI7951 melanoma cells [14]): 4.9 µM; IC50 (AP-1 promoter): < 10 µM; IC50 [15]: 5 to 10 µM
